Test results from US8404693B2, “Substituted piperidine compounds and methods of their use” (Adolor Corporation, priority 2003, dated 2013).

Tests used:
[1] = biological target: T1, cloned human μ opioid receptor (Homo sapiens, UniProt P35372); assay: [3H]diprenorphine receptor binding, μ opioid receptor; settings: [3H]diprenorphine displacement; read-out: affinity (expressed as Ki value), μ opioid receptor
T1 construct: expressed in transfected cells
Description: (§1) The potencies of the compounds were determined by testing the ability of a range of concentrations of each compound to inhibit the binding of the non-selective opioid antagonist, [^3H]diprenorphine, to the cloned human μ, κ, and δ opioid receptors, expressed in separate cell lines. IC50 values were obtained by nonlinear analysis of the data using GraphPad Prism version 3.00 for Windows (GraphPad Software, San Diego). Ki values were obtained by Cheng-Prusoff corrections of IC50 values.
(§2) The receptor binding method (DeHaven and DeHaven-Hudkins, 1998) was a modification of the method of Raynor et al. (1994). […] The filters were rinsed 4 times with 1 mL of cold 50 mM Tris HCl, pH 7.8 and radioactivity remaining on the filters determined by scintillation spectroscopy. Nonspecific binding was determined by the minimum values of the titration curves and was confirmed by separate assay wells containing 10 μM naloxone. Ki values were determined by Cheng-Prusoff corrections of IC50 values derived from nonlinear regression fits of 12 point titration curves using GraphPad Prism® version 3.00 for Windows (GraphPad Software, San Diego, Calif.).
(§3) To determine the equilibrium dissociation constant for the inhibitors (Ki), radioligand bound (cpm) in the presence of various concentrations of test compounds was measured. […]

[2] = biological target: T2, cloned human κ opioid receptor (Homo sapiens, UniProt P41145); assay: [3H]diprenorphine receptor binding, κ opioid receptor; settings: [3H]diprenorphine displacement; read-out: affinity (expressed as Ki value), κ opioid receptor
T2 construct: expressed in transfected cells
T2 sequence (P41145 whole entry): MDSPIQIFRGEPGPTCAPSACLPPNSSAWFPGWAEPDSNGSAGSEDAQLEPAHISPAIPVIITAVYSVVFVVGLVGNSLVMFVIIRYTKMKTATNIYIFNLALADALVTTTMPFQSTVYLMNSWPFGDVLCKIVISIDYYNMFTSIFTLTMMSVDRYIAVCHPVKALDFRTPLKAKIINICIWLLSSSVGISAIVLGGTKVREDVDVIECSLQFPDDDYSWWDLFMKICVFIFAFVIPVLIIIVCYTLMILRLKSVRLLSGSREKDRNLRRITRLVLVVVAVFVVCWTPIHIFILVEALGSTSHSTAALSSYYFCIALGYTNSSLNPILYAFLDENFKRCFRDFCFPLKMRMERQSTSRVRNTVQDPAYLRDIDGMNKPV
Description: as §1, §2, §3

[3] = biological target: T3, cloned human δ opioid receptor (Homo sapiens, UniProt P41143); assay: [3H]diprenorphine receptor binding, δ opioid receptor; settings: [3H]diprenorphine displacement; read-out: affinity (expressed as Ki value), δ opioid receptor
T3 construct: expressed in transfected cells
T3 sequence (P41143 whole entry): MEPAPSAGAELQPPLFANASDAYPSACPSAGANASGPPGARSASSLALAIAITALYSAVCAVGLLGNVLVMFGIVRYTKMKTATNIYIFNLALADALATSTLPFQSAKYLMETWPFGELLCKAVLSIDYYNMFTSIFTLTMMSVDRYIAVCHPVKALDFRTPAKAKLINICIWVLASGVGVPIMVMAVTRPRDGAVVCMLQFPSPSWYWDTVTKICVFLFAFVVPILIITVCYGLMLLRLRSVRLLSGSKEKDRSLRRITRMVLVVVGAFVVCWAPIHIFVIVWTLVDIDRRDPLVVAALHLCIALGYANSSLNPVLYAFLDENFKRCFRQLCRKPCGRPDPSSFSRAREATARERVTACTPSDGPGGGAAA
Description: as §1, §2, §3

[4] = system: Mouse Gastrointestinal Transit (GIT); assay: Mouse Gastrointestinal Transit (GIT) Assay; format: in vivo; settings: 10 mg/kg p.o., morphine 3 mg/kg s.c.
Description: Male Swiss-Webster mice (25-30 g) obtained from Ace Animals (Boyertown, Pa.) were used for all experiments. Mice were housed 4/cage in polycarbonate cages with food and water available ad libitum. Mice were on a 12 hours light:dark schedule with lights on at 6:30 a.m. All experiments were performed during the light cycle. Mice were fasted the night before the experiment, with water available ad libitum.
Mice were administered vehicle (10% DMSO:20% Cremophor EL:70% saline) or test compound (10 mg/kg) orally 2 or 6 hours before determination of GIT. Compounds were administered in a volume of 0.1 ml/10 g of body weight. Morphine (3 mg/kg) or vehicle (0.9% saline) was administered s.c. 35 min prior to determination of GIT. Ten minutes after the morphine treatment, mice were administered 0.2 ml of a charcoal meal orally. The charcoal meal consisted of a slurry of charcoal, flour, and water in the following ratio (1:2:8, w:w:v). Twenty-five minutes after receiving the charcoal meal, the mice were euthanized with CO2 and GIT determined.
GIT is expressed as the % GIT by the following formula:
[formula] For each compound a % Antagonism (% A) value was determined for the 2 and 6 hr antagonist pretreatment. Using the mean % GIT for each treatment group, % A was calculated using the following formula: […]

[5] = biological target: T1, cloned human μ opioid receptor; assay: inhibition of agonist (loperamide)-stimulated [35S]GTPγS binding; format: biochemical; settings: receptor not given; mu opioid receptor from context; read-out: in vitro antagonist activity (IC50)
Description: The potencies of the antagonists were assessed by their abilities to inhibit agonist-stimulated [^35S]GTPγS binding to membranes containing the cloned human μ, κ, or δ opioid receptors. The agonists used were loperamide for the μ opioid receptor, U50488H for the κ opioid receptor, and BW373U86 for the δ opioid receptor.
To determine the IC50 value, which was the concentration to give half-maximal inhibition of agonist-stimulated [^35S]GTPγS binding, the amount of [^35S]GTPγS bound in the presence of a fixed concentration of agonist and various concentrations of antagonist was measured. The fixed concentration of agonist was the EC80 for the agonist, which was the concentration to give 80% of the relative maximum stimulation of [^35S]GTPγS binding. The IC50 value was determined from a best nonlinear regression fit of the data to the following equation,
where Y is the amount of [^35S]GTPγS bound at each concentration of antagonist, Bottom is the calculated amount of [^35S]GTPγS bound in the presence of an infinite concentration of antagonist, Top is the calculated amount of [^35S]GTPγS bound in the absence of added antagonist, X is the logarithm of the concentration of antagonist, and Log IC50 is the logarithm of the concentration of antagonist where the amount of [^35S]GTPγS bound is halfway between Bottom and Top. […]

T1 sequence (P35372 whole entry): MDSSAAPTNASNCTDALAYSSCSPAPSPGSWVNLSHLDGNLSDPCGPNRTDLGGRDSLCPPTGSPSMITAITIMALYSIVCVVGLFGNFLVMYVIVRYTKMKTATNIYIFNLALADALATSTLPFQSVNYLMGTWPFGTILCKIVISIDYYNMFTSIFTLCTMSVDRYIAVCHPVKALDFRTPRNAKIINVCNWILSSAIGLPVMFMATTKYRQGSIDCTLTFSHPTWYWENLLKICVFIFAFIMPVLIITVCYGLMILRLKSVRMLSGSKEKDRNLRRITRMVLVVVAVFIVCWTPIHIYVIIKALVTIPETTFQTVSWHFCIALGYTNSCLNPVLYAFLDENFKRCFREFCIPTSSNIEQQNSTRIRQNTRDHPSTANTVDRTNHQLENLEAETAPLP

Row | SMILES | Ki [1] [nM] | Ki [2] [nM] | Ki [3] [nM] | % antagonism ([4]; 2 h pretreatment) [%] | % antagonism ([4]; 6 h pretreatment) [%] | IC50 [5] [nM]
1 | C[C@H]1CN(C[C@H](Cc2ccccc2)C(=O)NCC(=O)O)CC[C@@]1(C)c1cccc(C(N)=O)c1 [Example 58, [[2(R)-[[4(R)-(3-amidophenyl)-3(R),4-dimethyl-1-piperidinyl]methyl]-1-oxo-3-phenylpropyl]amino]acetic Acid] | 2.6 | 1080 | 85 | 92 | 61 | 3
2 | C[C@H]1CN(CC(Cc2ccccc2)C(=O)NCC(=O)O)CC[C@@]1(C)c1cccc(C(=O)O)c1 (stereo in doubt) [Example 28, [[2(R)-[[4(R)-(3-carboxyphenyl)-3(R),4-dimethyl-1-piperidin-yl]methyl]-1-oxo-3-phenylpropyl]amino]acetic Acid] | 19 | – | 1330 | 86 | 71 | 3.4
